How the values were obtained:
[1] = ref not given, cited from earlier work; for emission maximum, free dye: reported value; for absorbance maximum, free dye: reported for the free dye
DMS-53 (δOR+) tumors [2] = experiment: in vivo selectivity imaging, bilateral H1299 and DMS-53 xenografts, Optix-MX3; design: species or system mice; conditions: 40 nmol/kg i.v., 24 hours post-injection, n = 4, p ≤ 0.01
[3] = photobleaching in ambient light or in the dark; type: physicochemical; conditions: 50 nM in PBS, n = 4
HCT-116/δOR tumors [4] = type: in vivo, mice; conditions: i.v. tail vein
[5] = absorbance and emission spectra; type: physicochemical; conditions: for absorbance maximum: Tecan Infinite M-1000 PRO, 230–1000 nm; for absorbance maximum / emission maximum: step 2 nm; for emission maximum: bandwidth 5 nm; for Stokes-shift: conjugate versus free IR800CW
HCT-116/δOR tumors [6] = type: in vivo, mice; conditions: 10 nmol/kg i.v., 24 hours post-injection, n = 4, p ≤ 0.01
DMS-53 (δOR+) tumors [7] = type: in vivo, mice; conditions: i.v. tail vein; 40, 80 and 160 nmol/kg compared
[8] = cited from earlier work
H1299 cells [9] = experiment: confocal fluorescence microscopy, H1299; type: cell-based
DMS-53 cells [10] = experiment: confocal fluorescence microscopy, DMS-53; type: cell-based
HCT-116/δOR tumor = conditions: dose 4.5 nmol/kg; previous experiments; cited from earlier work
H1299 cells [11] = experiment: semi-quantitative confocal microscopy, H1299 cells; type: cell-based; conditions: Dmt-Tic-Lys-Cy5 50 nM
HCT-116 cells = experiment: semi-quantitative confocal microscopy, parental HCT-116 cells; type: cell-based; conditions: Dmt-Tic-Lys-Cy5 50 nM
δOR = δOR (Homo sapiens, UniProt P41143); conditions: cited from earlier work
Sequence of δOR (P41143 1-357 limits assumed): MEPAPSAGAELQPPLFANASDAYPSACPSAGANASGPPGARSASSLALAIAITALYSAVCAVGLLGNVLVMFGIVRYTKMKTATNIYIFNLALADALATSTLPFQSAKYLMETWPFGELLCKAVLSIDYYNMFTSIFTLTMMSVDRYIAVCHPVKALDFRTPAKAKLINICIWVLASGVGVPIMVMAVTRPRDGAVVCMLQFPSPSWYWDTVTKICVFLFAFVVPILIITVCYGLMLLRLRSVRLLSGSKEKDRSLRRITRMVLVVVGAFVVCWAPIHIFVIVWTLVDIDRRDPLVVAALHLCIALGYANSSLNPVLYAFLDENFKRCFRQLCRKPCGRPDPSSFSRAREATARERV

HCT-116/δOR cells = experiment: semi-quantitative confocal microscopy, HCT-116/δOR cells; type: cell-based; conditions: Dmt-Tic-Lys-Cy5 50 nM
DMS-53 cells [12] = experiment: semi-quantitative confocal microscopy, DMS-53 cells; type: cell-based; conditions: Dmt-Tic-Lys-Cy5 50 nM
[13] = naloxone 5 µM final pre-incubated 15 min, Dmt-Tic-Lys-Cy5 50 nM final
[14] = Dmt-Tic-Lys-Cy5 50 nM, 15 min, room temperature

In the case of CCN1/C(=C/C=C/C=C/C2=[N+](CCCCCC(=O)O)c3ccc(S(=O)(=O)O)cc3C2(C)C)C(C)(C)c2cc(S(=O)(=O)[O-])ccc21 [Cy5], the “emission maximum, free dye” value [1] is listed as 670 nm and the “absorbance maximum, free dye” value [1] is listed as 649 nm.

For Cc1cc(O)cc(C)c1C[C@H](N)C(=O)N1Cc2ccccc2C[C@H]1C(=O)N[C@@H](CCCCNC(=O)CCSC1CC(=O)N(CCNC(=O)CCCCCN2C(=CC=C3CCCC(C=CC4=[N+](CCCCS(=O)(=O)[O-])c5ccc(S(=O)(=O)O)cc5C4(C)C)=C3Oc3ccc(S(=O)(=O)O)cc3)C(C)(C)c3cc(S(=O)(=O)O)ccc32)C1=O)C(=O)O (stereo partly drawn) [Dmt-Tic-IR800], the “fold enhancement of positive tumor (DMS-53) relative to negative tumor (H1299)” value (DMS-53 (δOR+) tumors [2]) was ~ 4 fold, the “normalized intensity, DMS-53 versus H1299” value (DMS-53 (δOR+) tumors [2]) was “significantly higher normalized intensity” and the “significance of difference in percent initial fluorescence, light versus dark” value ([3]; ICG filter set, except at ≥ 7 hours) was “not significantly different”. The “difference in percent of the initial fluorescence intensity, light versus dark” value ([3]; ICG filter set, significant at ≥ 7 hours) was 6–13%, the “tumor-to-background ratio, 20 versus 10 nmol/kg” value (HCT-116/δOR tumors [4]; 10 nmol/kg selected) was “similar” and the tumor-to-background ratio (HCT-116/δOR tumors [4]; 20 and 10 nmol/kg versus 5 and 2.5 nmol/kg, all time points) was “greatest tumor-to-background ratio”. The dye retention (HCT-116/δOR tumors [4]; IVIS-200) was “retained for days”, the absorbance maximum ([5]; 100 µM in PBS) was 778 nm and the emission maximum ([5]; 1 mM in PBS, emission 450–850 nm) was 832 nm. For the same compound, the Stokes-shift [5] was 54 nm, the “average fluorescence signal, HCT-116/δOR versus HCT-116 tumors” value (HCT-116/δOR tumors [6]) was “significantly higher average fluorescence signal” and the optimal dose (DMS-53 (δOR+) tumors [7]) was 40 nmol/kg.

In the case of CC1(C)C(/C=C/C2=C(Oc3ccc(S(=O)(=O)O)cc3)C(=C/C=C3/N(CCCCS(=O)(=O)O)c4ccc(S(=O)(=O)[O-])cc4C3(C)C)/CCC2)=[N+](CCCCCC(=O)O)c2ccc(S(=O)(=O)O)cc21 [IR800CW], the “emission maximum, free dye” value [1] is listed as 789 nm, the “absorbance maximum, free dye” value [1] is listed as 774 nm and the Stokes-shift [5] is listed as 15 nm. The toxicity [8] was “non-toxic”.

For C=CCN1CC[C@]23c4c5ccc(O)c4O[C@H]2C(=O)CC[C@@]3(O)[C@H]1C5 [naloxone], the “effect of naloxone on cell-surface labeling” value (H1299 cells [9]; [13]) was “unaffected” and the “effect of naloxone on cell-surface labeling” value (DMS-53 cells [10]; [13]) was “blocked”.

In the case of Dmt-Tic-Lys-Cy5, the cell-surface labeling (H1299 cells [9]; [14]) is given as “little labeling was observed”, the “tumor uptake and retention” value (HCT-116/δOR tumor) is given as “selective uptake and retention” and the labeling (H1299 cells [11]) is given as “No labeling was observed”. For the same compound, the labeling (HCT-116 cells) was “No labeling was observed”, the photobleaching ([3]; light versus dark, IVIS-200, Cy5 filter set) was “photobleaches” and the “δOR affinity (in words)” value (δOR) was “low nM affinity”. For the same compound, the Ki (δOR; read-out: binding affinity for the δOR (Ki)) was 3 nM, the cell-surface labeling (DMS-53 cells [10]; [14]) was “cell-surface labeling is observed” and the absorbance maximum ([5]; 100 µM in PBS) was 650 nm. For the same compound, the emission maximum ([5]; 100 µM in PBS, emission 280–850 nm) was 676 nm, the cell-surface labeling (HCT-116/δOR cells) was “Cell-surface labeling was observed” and the cell-surface labeling (DMS-53 cells [12]) was “Cell-surface labeling was observed”.

Source: PMC5524213 (Bioconjugate chemistry, 2015)
